In the SangsterLogP compilation one finds logP and logD data, which are given here for 65 compounds.

Structures are written as SMILES.

Series [1] in a line: method code SF-HPLC, from DOI: 10.1248/cpb.43.1894.
Series [2] is described as follows: method code SF-AS, from DOI: 10.2307/3577276, PMID: 2913608.
Series [3] in a line: method code SF-AS, from DOI: 10.1021/jm00299a013, PMID: 5458368.
The nature of series [4]: method code SF-HPLC, from DOI: 10.1002/jps.2600841008, PMID: 8801331.
The nature of series [5]: method code SF-AS, from Frater-Schröder, M.; Alder, S.; Zbinden, G. (1976). Neurotoxic effects of pyridoxine and analogs in rats. Proc. Eur. Soc. Toxicol, 17, 277-284. Conditions: pH 7.4.
Series [6] in a line: method code SF, from DOI: 10.1002/em.2850190108, PMID: 1732104.
The nature of series [7]: method code SF-AS, from DOI: 10.1248/cpb.21.2309, PMID: 4775970. Conditions: pH 3.3.
A short description of series [8]: method code SF-RC, from DOI: 10.1002/ps.2780300102. Conditions: pH 2.0.
Assay in series [9]: not given
The source holds these as a separate data set.

The nature of series [10]: method code SF-AS, from DOI: 10.1016/j.bmc.2008.07.057, PMID: 18706818. Conditions: pH 7.4.
Series [11] is described as follows: method code SF-C, from DOI: 10.1021/ja00901a033.
Series [12] is described as follows: method code SF-RC, from DOI: 10.1248/cpb.38.3099, PMID: 2085895. As to conditions: pH 7.4.
Series [13] can be described thus: method code SF-AS, from DOI: 10.1002/jhet.5570150704.
A short description of series [14]: method code SF, from DOI: 10.1002/ps.2780340212. As to conditions: pH 7.0.
Series [15] in a line: method code SF-RC, from DOI: 10.1016/s0026-895x(25)10639-1, PMID: 1170492.
For series [16] the following is noted: pH 1.0.
Assay in series [17]: not given
This is another data set of the same source.

Series [18] is described as follows: method code SF, from DOI: 10.1002/qsar.19920110207. As to conditions: pH 1.0.
Assay in series [19]: not given
The source holds these as a separate data set.

A short description of series [20]: method code SF-AS, from DOI: 10.1016/0005-2728(86)90252-5, PMID: 3015209. As to conditions: pH 7.2.
Assay in series [21]: not given
The source holds these as a separate data set.

Series [22] is described as follows: method code SF-AS, from DOI: 10.1016/j.bmc.2007.10.035, PMID: 18029186. As to conditions: pH 7.4.
Assay in series [23]: not given
The source holds these as a separate data set.

Series [24] is described as follows: method code SF-RC, from DOI: 10.1182/blood.v76.11.2389.bloodjournal76112389, PMID: 2257308. As to conditions: pH 7.4.
Series [25] is described as follows: method code SF-GLC, from DOI: 10.1016/0045-6535(83)90264-3.
The nature of series [26]: method code SF-GLC, from DOI: 10.1016/0147-6513(82)90020-3, PMID: 7106034.
Assay in series [27]: not given
The source holds these as a separate data set.

Series [28] can be described thus: method code SF-EPR, from DOI: 10.1016/0003-9861(82)90097-2, PMID: 6284047. Conditions: pH 7.4.
Series [29] in a line: method code SF-HPLC, from Blakemore, C.; Brown, H.; Durant, J.; Emmett, C.; Ganellin, R.; Parsons, E.; Rasmussen, C. (1980). SK&F 92994: a new histamine H2-receptor antagonist. COMMUNICATIONS: Part II. Br. J. Pharmacol., ….
The nature of series [30]: method code SF-HPLC, from DOI: 10.1016/0378-5173(88)90220-7. As to conditions: pH 7.4.
Assay in series [31]: not given
This is another data set of the same source.

A short description of series [32]: method code SF-AS, from DOI: 10.1021/jm00162a004, PMID: 3023612.

In the case of `CNC(=O)OCc1ccc(I)cc1[N+](=O)[O-]`, the logP – broadly, the decadic logarithm of the partition coefficient of the neutral form, usually between octanol and water – was found to be 1.67.

In turn, `CSC(=S)C1=C(SC)CCC1` gave a logP in series [1] of 3.59.

Compound `O=[N+]([O-])c1ccccc1NS(=O)(=O)c1[nH]cnc1[N+](=O)[O-]` registered a logP in series [2] of 1.2.

Take `Cc1ncc([N+](=O)[O-])n1CCCS(C)(=O)=O`: the logP in [3] is -1.

Take `Oc1cccc2ncccc12`: in series [4] (pH 7.4), the logD (as a rule, the decadic logarithm of the distribution of all forms, ionised or not, between an organic phase and buffer at a given pH) was determined as 2.13.

In turn, `Cc1ncc(CO)c(CO)c1O` had a logD in series [5] of -0.77.

As for `CC(=O)c1ccccc1[N+](=O)[O-]`, the log partition coefficient (logP) in [6] came to 1.53.

`Cc1ccc(C)c(C(=O)NS(=O)(=O)c2ccc(N)cc2)c1` returned a logD in series [7] of 2.19.

Compound `COC(=O)c1ccccc1NS(=O)(=O)c1[nH]cnc1[N+](=O)[O-]` returned a logP in series [2] of 1.6.

Consider `NC(=O)Nc1ccc(CC(=O)O)cc1`, for which the log distribution coefficient (logD) in series [8] is 0.01.

The compound `N#CC(C#N)=NNc1cccc(O)c1` registered a logD in series [9] (pH 7.2) of 1.48.

For the compound `CCCC1(C(N)=O)CCC=[N+]1[O-]` (stereo not given), the logD in series [10] is -0.68.

As for `CC(=O)c1ccc(OCC(=O)O)cc1`, in series [11], the logP stood at 1.08.

Compound `CNC(=S)NN=C(C)CC(C)=NNC(=S)NC` returned a logD in [12] of 2.66.

Regarding `CNC(=O)OCc1cccc(COC(=O)NC)n1`, the logP in [13] worked out at 0.24.

The compound `COc1ccc(C(=CSC)C(=S)SC)cc1` displayed a logP in series [1] of 4.1.

Take `CC(C)(C)C(=O)C(Oc1ccc(Cl)cc1)n1cncn1` (stereo not given): the logD in series [14] was determined as 2.9.

In series [5], `Cc1ncc(CO)c(C=O)c1O` returned a logD of -0.82.

Regarding `CNC(=S)N/N=C(C)\C(C)=N/NC(=S)NC`, the logD in series [12] was found to be 0.67.

In [15], `CC(CSCC(C)=NNC(N)=S)=NNC(N)=S` gave a logP of 0.7.

Consider `O=C(O)C(c1ccc(Cl)cc1)c1ccc(Cl)cc1`, for which the logD in series [16] is 4.64.

`NC(=O)c1ccccc1C(N)=O` showed a logP in [17] of 1.08.

As for `CC(=O)c1cccc(C(=O)O)c1`, the logD in series [18] came out at 1.56.

In turn, `O=C(O)CNC(=O)c1cccc(I)c1` had a logP in series [19] of 1.44.

As to `N#CC(C#N)=NNc1ccc([N+](=O)[O-])cc1Cl`, the logD in [20] was found to be 2.

In series [14], `Cc1ccc(NC(N)=O)cc1` displayed a logD of 0.8.

As for `N#CC(C#N)=NNc1ccc(C(=O)CCl)cc1`, in [9] (pH 3.0), the logD was found to be 2.15.

With `NS(=O)(=O)c1nnc(NS(=O)(=O)c2ccccc2)s1`, the logP in series [21] came to 0.22.

Turning to `CC(=O)OC[C@H]1O[C@H](OCCN(C)C(=O)Cn2ccnc2[N+](=O)[O-])[C@@H](OC(C)=O)[C@@H](OC(C)=O)[C@@H]1OC(C)=O`, the logD in series [22] is -1.16.

In the case of `O=[N+]([O-])C1NC=CN1C1OC(CI)C(O)C1O` (stereo not given), the logP in series [23] came to 0.7.

With `O=C(O)CCc1cccc(I)c1`, the logP in series [19] amounted to 2.68.

On to `CCc1c(O)c(=O)ccn1C`, for which the logD in series [24] was -0.3.

Turning to `CSc1nc2ccccc2s1`, the logP in series [25] worked out at 3.15.

In turn, `COCCn1ccc(=O)c(O)c1C` registered a logD in series [24] of -0.52.

In turn, `O=[N+]([O-])c1cccc2cccc([N+](=O)[O-])c12` came in with a logP in series [6] of 2.52.

With `O=[N+]([O-])c1nccn1C1OCC(I)CC1O` (stereo not given), in [23], the logP is -0.05.

As to `CCCCC1(C(N)=O)CCC=[N+]1[O-]` (stereo not given), the logD in series [10] was -0.18.

Compound `CCN(CC)C(=S)SSC(=S)N(CC)CC` yielded a logP in series [26] of 3.88.

For `CC(C)NC(=O)c1cccnc1`, the logP in series [27] was 0.59.

`Cc1nc(-c2ccccn2)no1` registered a logP in series [13] of 0.79.

As to `CNC(=O)OCc1cccc(I)c1[N+](=O)[O-]`, the logP was determined as 1.64.

The compound `O=C(O)COc1ccc(Br)cc1` registered a logP in series [11] of 2.45.

In series [28], `CC1(C)CCCC(C)(C)N1O` returned a logD of 1.81.

As for `CC(=O)c1ccc(C(=O)O)cc1`, the logD in series [18] came to 1.61.

In the case of `CN(Cc1ccc(Br)cc1)N=O`, the logP in [29] was found to be 1.57.

`CNS(=O)(=O)c1ccc(C)cc1` had a logD in series [30] of 1.28.

In series [25], `O=C(O)c1c(C(=O)O)c(C(=O)O)c(C(=O)O)c(C(=O)O)c1C(=O)O` gave a logP of -1.45.

In series [31], `NS(=O)(=O)c1cc2c(cc1Cl)NC(C(Cl)Cl)NS2(=O)=O` (stereo not given) had a logP of 0.64.

Take `CCCCC1(C)CCC=[N+]1[O-]` (stereo not given): in series [32], the logP was found to be 0.04.

With `Cc1nnc(NS(=O)(=O)c2ccc(N)cc2)s1`, the logD in [7] was found to be 0.26.

Turning to `Cc1ccc(S(=O)(=O)N(C)C(=O)c2ccccc2)cc1`, the logD in [30] stood at 2.95.

As for `O=C(NCCO)c1cccnc1`, the logP in [27] is -0.11.

Take `CN(CCO)C(=O)Cn1ccnc1[N+](=O)[O-]`: the logD in [22] was -1.25.

`CCCS(=O)(=O)CCn1c([N+](=O)[O-])cnc1C` yielded a logP in series [3] of 0.23.

As to `CNC(=S)NN=C(C)CSCC(C)=NNC(=S)NC`, the log partition coefficient (logP) in series [15] turned out to be 1.4.

The compound `COc1cccc(C(=O)O)c1` showed a logP in series [17] of 1.9.

Turning to `Cc1cccc(C)c1NN=C(C#N)C#N`, the logD in series [20] was found to be 2.1.

On to `[O-][N+]1=CCCC12CCCC2`, for which, in series [32], the logP is -0.1.

The compound `O=S1OCC2C(CO1)C1(Cl)C(Cl)=C(Cl)C2(Cl)C1(Cl)Cl` (stereo not given) yielded a logP in series [26] of 3.83.

As to `CN(Cc1cccc(Br)c1)N=O`, the logP in [29] was 1.65.

Take `CC(Oc1cc(Cl)c(Cl)cc1Cl)C(=O)O` (stereo not given): the logD in series [16] was 3.8.

For the compound `CC(CS)C(=O)N1CCC[C@H]1C(=O)O` (stereo not given in full), in [31], the logP was 0.42.

For the compound `CCOC(=O)C1=C(COCCN)NC(C)=C(C(=O)OC)C1c1ccccc1Cl` (stereo not given), the logD in series [4] (pH 11.0) turned out to be 3.09.

In turn, `CCC1(C)OCC(C)(C)N1[O]` (stereo not given) showed a logD in series [28] of 1.

`COc1nc(C)nc(NC(=O)NS(=O)(=O)c2ccccc2Cl)n1` gave a logD in series [8] of 1.54.
